Test results: publication PMC6835155, “Lessons from LIMK1 enzymology and their impact on inhibitor design” (Biochemical Journal, 2019)

How the values were obtained:
[1] = molecular target: T1, LIMK1KD (Homo sapiens, UniProt P53667); test: Differential (dynamic) scanning fluorimetry (DSF) assay, LIMK1KD; format: binding; conditions: 2 µM LIMK1KD, compound 10 µM, single shot; for ΔTm at 10 µM: read-out: TM Shift LIMK1 (K)
T1 construct: His6 (N, cleaved yes); made in house; host or cells: baculovirus; Sf9 for virus, TriEx insect cells for expression
T1 sequence (P53667 330-637): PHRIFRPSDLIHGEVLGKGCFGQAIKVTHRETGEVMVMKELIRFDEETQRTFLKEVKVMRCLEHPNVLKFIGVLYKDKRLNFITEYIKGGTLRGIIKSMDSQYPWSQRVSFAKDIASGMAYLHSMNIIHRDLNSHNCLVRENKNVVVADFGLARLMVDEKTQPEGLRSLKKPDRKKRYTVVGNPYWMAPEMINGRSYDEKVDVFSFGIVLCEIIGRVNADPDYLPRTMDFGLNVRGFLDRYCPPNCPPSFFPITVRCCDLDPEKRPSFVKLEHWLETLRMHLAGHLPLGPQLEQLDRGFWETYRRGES

[2] = molecular target: T2, LIMK2KD (Homo sapiens, UniProt P53671); test: Differential (dynamic) scanning fluorimetry (DSF) assay, LIMK2KD; format: binding; conditions: LIMK2KD, compound 10 µM, single shot; for ΔTm at 10 µM: read-out: TM Shift LIMK2 (K)
T2 construct: The cDNA coding for LIMK2 residues 330 to 632 was PCR amplified; His6 (N, cleaved yes); made in house; host or cells: baculovirus; Sf9 for virus, TriEx insect cells for expression
T2 sequence (P53671 330-632): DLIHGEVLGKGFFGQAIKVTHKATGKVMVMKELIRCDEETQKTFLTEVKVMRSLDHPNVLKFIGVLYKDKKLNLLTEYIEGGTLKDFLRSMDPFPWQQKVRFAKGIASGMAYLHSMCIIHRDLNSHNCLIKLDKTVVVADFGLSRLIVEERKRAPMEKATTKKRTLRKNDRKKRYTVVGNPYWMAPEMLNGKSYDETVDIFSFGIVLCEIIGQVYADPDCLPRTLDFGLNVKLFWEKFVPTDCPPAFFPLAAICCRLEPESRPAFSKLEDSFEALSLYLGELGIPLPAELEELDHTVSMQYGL

Structure (SMILES) | ΔTm at 10 µM [1] [°C] | ΔTm at 10 µM [2] [°C] | TM Shift LIMK1 (K) [1] [K] | TM Shift LIMK2 (K) [2] [K] | other results
CCCNC(=O)Nc1ccc(Oc2ncnc3cc(OC)c(OC)cc23)cc1Cl [KRN 633] | 1.9 | 1.4 |  |  | 
Nc1nccc(-c2c(-c3ccc(F)cc3)ncn2C2CCCCC2)n1 [PF-670462] |  |  | 1.5 | -0.2 | 
CC(C)(C)c1cc(/C=C(\C#N)C(N)=S)cc(C(C)(C)C)c1O [Tyrphostin AG 879] | 0.1 | 1.2 |  |  | 
c1cncc(CN2CCC(n3ncc4c(N5CCOCC5)nc(-c5ccc6[nH]ccc6c5)nc43)CC2)c1 [WAY-600] |  |  | -0.1 | -0.2 | 
CCN1CCN(Cc2ccc(-c3cc4c(N[C@H](C)c5ccccc5)ncnc4[nH]3)cc2)CC1 [AEE788 (NVP-AEE788)] | 4.7 | 4.5 |  |  | 
CN(C)CCOc1ccc(-c2nc(-c3ccncc3)c(-c3ccc4c(c3)CC/C4=N\O)[nH]2)cc1 [SB590885] | 0.1 | 1 |  |  | 
O=C(c1cccc(Cl)c1F)N1CCN(Cc2cccc(Nc3nccs3)n2)CC1 [MK-8745] |  |  | 1.0 | -0.3 | 
CN(c1ncccc1CNc1nc(Nc2ccc3c(c2)CC(=O)N3)ncc1C(F)(F)F)S(C)(=O)=O [PF-00562271] |  |  | 1.1 |  | TM Shift LIMK2 (K) ([2]; 10 µM): 0.3 K
COc1cc2ncc(-c3ccccc3)nc2cc1OC [Tyrphostin AG 1296] |  |  | 0.0 | -1.3 | 
C=CC(=O)Nc1cccc(Nc2nc(Nc3ccc(Oc4ccnc(C(=O)NC)c4)cc3)ncc2F)c1 [CNX-774] |  |  | 1.6 | 1.2 | 
C[C@]1(O)C[C@@H](c2nc(-c3ccc4ccc(-c5ccccc5)nc4c3)c3c(N)nccn32)C1 [Linsitinib] |  | 0.9 | 0.8 |  | TM Shift LIMK1 (K) ([1]; listed as OSI-906 (Linsitinib)): 0.2 K; TM Shift LIMK2 (K) ([2]; listed as OSI-906 (Linsitinib), 10 µM): 0.7 K
COc1cc(Nc2c(C#N)cnc3cc(OCCCN4CCN(C)CC4)c(OC)cc23)c(Cl)cc1Cl [Bosutinib (SKI-606), Bosutinib] | 0.1 | 1.3 |  |  | 
Cc1cc(Nc2ncc(Cl)c(Nc3ccccc3S(=O)(=O)C(C)C)n2)c(OC(C)C)cc1C1CCNCC1 [LDK378] | 0.2 | -0.3 |  |  | 
CCS(=O)(=O)N1CC(CC#N)(n2cc(-c3ncnc4[nH]ccc34)cn2)C1 [Baricitinib] | 1.6 | 1 |  |  | 
S=C(NCc1ccc2c(c1)OCO2)N1CCN(c2ncnc3c2oc2ccccc23)CC1 [Amuvatinib (MP-470), Amuvatinib] | -0.3 | 2.3 |  |  | 
CC(C)c1cnn2c(NCc3ccccc3)cc(NCCCCCCN)nc12.Cl [BS-181 HCl] |  |  | 0.7 | 1.7 | 
C[C@H](Nc1ncnc2nc[nH]c12)c1cc2cccc(Cl)c2c(=O)n1-c1ccccc1 [IPI-145 (INK1197)] | -1.5 | -0.6 |  |  | 
Nc1nc(Nc2ccc(S(N)(=O)=O)cc2)nn1C(=O)c1c(F)cccc1F [JNJ-7706621] | 8.2 | 5.8 |  |  | 
COC(=O)[C@]12CCC(C)(C)C[C@H]1[C@H]1C(=O)C=C3[C@@]4(C)C=C(C#N)C(=O)C(C)(C)[C@@H]4CC[C@@]3(C)[C@]1(C)CC2 [Bardoxolone Methyl] | -1 | 0.8 |  |  | 
CCc1cncnc1N1CCN(Cc2nc3ccc(C(F)(F)F)cc3[nH]2)CC1 [PF-4708671] |  |  | 0.4 |  | TM Shift LIMK2 (K) ([2]; 10 µM): 3.5 K
CCN1CCN(C(=O)Cc2ccc(Nc3ncc(F)c(Nc4ccc(C(=O)Nc5ccccc5Cl)cc4)n3)cc2)CC1 [Aurora A Inhibitor I] |  |  | 4.9 | 3.7 | 
Cc1cc(Nc2cc(N3CCN(C)CC3)nc(Sc3ccc(NC(=O)C4CC4)cc3)n2)[nH]n1 [VX-680 (Tozasertib, MK-0457), Tozasertib] | 3.4 | 0 |  |  | 
Cc1ccc([N+](=O)[O-])cc1S(=O)(=O)N(C)/N=C/c1cnc2ccc(Br)cn12 [PIK-75] |  |  | 3.3 | 2.4 | 
O=C(O)c1ccc(-c2c[nH]c3ncc(-c4ccccc4)cc23)cc1C1CCCC1 [GSK650394] | 1.4 | -0.2 |  |  | 
COc1ccc(COc2cc3oc(=O)c4cc(C(C)O)ccc4c3cc2OC)cc1 (stereo not drawn) [Palomid 529 (P529)] |  |  | 0.0 | 10.6 | 
Cc1cc([C@@H](C)Nc2ccccc2C(=O)O)c2nc(N3CCOCC3)cc(=O)n2c1 [AZD6482] | 0.7 | 1.8 |  |  | 
